The text below walks through data of US8829014B2, “Thiazole and thiophene analogues, and their use in treating autoimmune diseases and cancers” (Board of Supervisors of Louisiana State University and …, priority 2006, dated 2014).

Assay [1] concerns AP-1. In words: PMA-induced AP-1 luciferase expression in HEK cells. Format: cell-based. To be noted: luciferase in HEK/AP-1 cells, as described in Example 398; for inhibition at 1 µM: AP1, 1 uM.
For assay [2], the system named is carageenan-induced edema. Nature of the assay: Carrageenan-induced rat paw edema test (anti-inflammatory activity). Format: in vivo, Sprague-Dawley rats. In short, it runs like this: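 Sprague-Dawley rats (male and female, 150-250 g), fasted 18 h, given compound orally at 50 mg/kg in 0.1% sodium CMC (alternatively i.v., s.c. or i.p.). 1% carrageenan injected sub-plantar in right hind paw 1 h later. Paw displacement read again 3 h later; % protection = [(Control−Test)/Control]×100 versus saline control.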
In general terms: The carrageenan paw model is a standard test of acute inflammation.

The test system of assay [3] is NF-κB. Nature of the assay: TNF-α-induced NF-κB-dependent luciferase expression in HEK cells. To be noted: luciferase in HEK/NF-κB cells, as described in Example 398; for inhibition at 1 µM: Homo sapiens, HEK293, 1 uM, read-out: NFkB inhibition @ 1 uM. Format: cell-based.
The mark [4] stands for this setting: Rattus norvegicus, po, 3 h, rat paw edema, 50 mg/kg, reading 3 hours after carrageenan; [(Control−Test)/Control]×100%; read-out: % Protection P.
Where [5] appears, read: rat paw edema, 50 mg/kg, reading 3 hours after carrageenan; [(Control−Test)/Control]×100%; 50 mg/kg.

As a reminder, the inhibition is the drop in the measured response relative to a control, in per cent. In the case of `COc1c(C)cc(-c2cc(-c3ccc(S(C)(=O)=O)cc3)c(N3CCOCC3)s2)nc1C` [Example 52, 4-[3-(4-Methanesulfonyl-phenyl)-5-(5-methoxy-4,6-dimethyl-pyridine-2-yl)-thiophene-2-yl]-morpholine], the inhibition at 1 µM in assay [1] was -7.93%; in assay [3], 5.81%. Besides, in assay [2] (setting [4]), the inhibition in vivo at 50 mg/kg worked out at 61.1%.
The like results for `COc1ccc(C(=O)c2cc(-c3ccc(S(C)(=O)=O)cc3)c(N3CCOCC3)s2)cc1` [Example 56, [4-(4-Methanesulfonyl-phenyl)-5-morpholin-4-yl-thiophene-2-yl]-(4-methoxy-phenyl)-methanone] were, in that order, 76.1%, 18.1% and 77.8%.
The corresponding values for `CS(=O)(=O)c1ccc(-c2cc(C(=O)c3ccncc3)sc2N2CCOCC2)cc1` [Example 63, [4-(4-Methanesulfonyl-phenyl)-5-morpholin-4-yl-thiophene-2-yl]-pyridin-4-yl-methanone] are 5.71%, 10.5% and 50%.
For the compound `COc1c(C)cc(C(=O)c2cc(-c3ccc(NC(C)=O)cc3)c(N3CCOCC3)s2)nc1C` [Example 64, N-{4-[5-(5-Methoxy-4,6-dimethyl-pyridine-2-carbonyl)2-morpholin-4-yl-thiophene-3-yl]-phenyl}-acetamide], the inhibition at 1 µM is 26.2% in assay [1] and -4.95% in assay [3]. For the same compound, in assay [2] (setting [4]), the inhibition in vivo at 50 mg/kg was 49%.
The like results for `CC(=O)Nc1ccc(-c2cc(C(=O)c3ccccc3)sc2N2CCOCC2)cc1` [Example 66, N-[4-(5-Benzoyl-2-morpholin-4yl-thiophene-3-yl)-phenyl]-acetamide] were, in that order, -2.98%, 24.2% and 40%.
The like results for `CC(=O)Nc1ccc(-c2cc(C(=O)c3ccc(Cl)cc3Cl)sc2N2CCOCC2)cc1` [Example 70, N-{4-[5-(2,4-Dichloro-benzoyl)-2-morpholin-4-yl-thiophene-3-yl]-phenyl}-acetamide] were, in that order, 54%, 18.6% and 39.2%.
Take `CSc1ccc(C(=O)c2cc(-c3ccc(NC(C)=O)cc3)c(N3CCOCC3)s2)cc1` [Example 71, N-{4-[5-(4-Methansulfanyl-benzoyl)-2-morpholin-4-yl-thiophene-3-yl]-phenyl}-acetamide]: in assay [1], the “AP-1 inhibition @ 1 uM” value came to 27.75. The “% Protection P” value in assay [2] (rat paw edema, 50 mg/kg, reading 3 hours after carrageenan; [(Control−Test)/Control]×100%) worked out at 2.5%. Further, the “NFkB inhibition @ 1 uM” value in assay [3] is given as 7.6.
`CC(=O)Nc1ccc(C(=O)c2cc(-c3ccc(NC(C)=O)cc3)c(N3CCOCC3)s2)cc1` [Example 73, N-{4-[5-(4-acetylamino-benzoyl)-2-morpholin-4-yl-thiophene-3-yl]-phenyl}-acetamide]: the inhibition at 1 µM is 19.9% in assay [1] and -28.6% in assay [3]. In assay [2] (setting [4]), the inhibition in vivo at 50 mg/kg was -23.5%.
The like results for `CC(=O)Nc1ccc(-c2cc(C(=O)c3ccncc3)sc2N2CCOCC2)cc1` [Example 75, N-{4-[2-Morpholin-4-yl-5-(pyridine-4-carbonyl)-thiophene-3-yl]-phenyl}-acetamide] were, in that order, 45.5%, 17.4% and 45.7%.
The corresponding values for `COc1ccc(C(=O)c2cc(-c3ccc(Cl)cc3)c(N3CCOCC3)s2)cc1` [Example 80, [4-(4-Chloro-phenyl)-5-morpholin-4-yl-thiophen-2-yl]-(4-methoxy-phenyl)-methanone] are 30.6%, -2.91% and 18.9%.
The like results for `O=C(c1cc(-c2ccc(Cl)cc2)c(N2CCOCC2)s1)c1ccc(Cl)cc1Cl` [Example 82, [4-(4-Chloro-phenyl)-5-morpholin-4-yl-thiophen-2-yl]-(2,4-dichloro-phenyl)-methanone] were, in that order, 34.3%, 0.6% and 22.8%.
On to `CS(=O)(=O)c1ccc(C(=O)c2cc(-c3ccc(Cl)cc3)c(N3CCOCC3)s2)cc1` [Example 84, [4-(4-Chloro-phenyl)-5-morpholin-4-yl-thiophen-2-yl]-(4-methansulfonyl-phenyl)-methanone], for which the inhibition at 1 µM is 30.9% in assay [1] and -11.7% in assay [3]. Besides, the inhibition in vivo at 50 mg/kg in assay [2] (setting [4]) is 23%.
The corresponding values for `O=C(c1cccnc1)c1cc(-c2ccc(Cl)cc2)c(N2CCOCC2)s1` [Example 86, [4-(4-Chloro-phenyl)-5-morpholin-4-yl-thiophen-2-yl]-pyridin-3-yl-methanone] are 15.2%, 3.6% and 28.1%.
The corresponding values for `Cc1ccc(C(=O)c2cc(-c3cccnc3)c(N3CCOCC3)s2)cc1` [Example 91, (5-Morpholin-4-yl-4-pyridin-3-yl-thiophene-2-yl)-p-tolyl-methanone] are 49%, 1.28% and 25.3%.
Consider `CSc1ccc(C(=O)c2cc(-c3cccnc3)c(N3CCOCC3)s2)cc1` [Example 95, (4-Methylsulfanyl-phenyl)-(5-morpholin-4-yl-4-pyridin-3-yl-thiophen-2-yl)-methanone], for which the “AP-1 inhibition @ 1 uM” value in assay [1] came to 64.02. Besides, in assay [2] (setting [5]), the “% Protection P” value turned out to be 42.44%. Further, the “NFkB inhibition @ 1 uM” value in assay [3] is reported as 11.24.
In the case of `CS(=O)(=O)c1ccc(C(=O)c2cc(-c3cccnc3)c(N3CCOCC3)s2)cc1` [Example 96, (4-Methylsulfonyl-phenyl)-(5-morpholin-4-yl-4-pyridin-3-yl-thiophen-2-yl)-methanone], the inhibition at 1 µM in assay [1] is 37.7%; in assay [3] it was -12.9%. Besides, the inhibition in vivo at 50 mg/kg in assay [2] (setting [4]) came to 46.8%.
The corresponding values for `COc1c(C)cc(-c2cc(-c3ccncc3)c(N3CCOCC3)s2)nc1C` [Example 100, 4-[5-(5-Methoxy-4,6-dimethyl-pyridin-2-yl)-3-pyridin-4-yl-thiophen-2-yl]-morpholine] are 47.4%, 5.21% and 54.2%.
The corresponding values for `Cc1ccc(C(=O)c2cc(-c3ccncc3)c(N3CCOCC3)s2)cc1` [Example 103, (5-Morpholin-4-yl-4-pyridin-4-yl-thiophene-2-yl)-p-tolyl-methanone] are 4.35%, 10.3% and -30.8%.
`CSc1ccc(C(=O)c2cc(-c3cccnc3)c(N3CCOCC3)s2)cc1` [Example 107, (4-Methylsulfanyl-phenyl)-(5-morpholin-4-yl-4-pyridin-3-yl-thiophen-2-yl)-methanone]: in assay [1], the “AP-1 inhibition @ 1 uM” value stood at 19.05. In addition, the “% Protection P” value in assay [2] (setting [5]) is −42.44%. In assay [3], the “NFkB inhibition @ 1 uM” value was determined as 1.69.
For the compound `CS(=O)(=O)c1ccc(C(=O)c2cc(-c3ccncc3)c(N3CCOCC3)s2)cc1` [Example 108, (4-Methylsulfonyl-phenyl)-(5-morpholin-4-yl-4-pyridin-4-yl-thiophen-2-yl)-methanone], the inhibition at 1 µM in assay [1] is 46.6%; in assay [3] it was -8.31%. Also, in assay [2] (setting [4]), the inhibition in vivo at 50 mg/kg was determined as 54.2%.
